The structures appear in SMILES notation.

The nature of data set [1]: Compound stability in rat liver microsomes. The conditions noted are these: for half-life at 5 μM: compound 5 μM, NADPH 1.0 mM, 37° C.; for CLint scaled at 5 μM: in vivo CLint extrapolated. It is filed as in vitro ADME. On the procedure: (§1) Human or rat liver microsomes incubations were conducted in duplicate in polypropylene tubes. The typical incubation mixtures consisted of human or rat liver microsomes (0.5 mg protein/mL), compounds of interest (5 μM) and NADPH (1.0 mM) in a total volume of 200 μL potassium phosphate buffer (PBS, 100 mM, pH 7.4). Compounds were dissolved in DMSO and diluted with PBS such that the final concentration of DMSO was 0.05%. The enzymatic reactions were commenced with the addition of protein after a 3-min preincubation and incubated in a water bath open to the air at 37° C. Reactions were terminated at various time points (0, 5, 10, 15, 30, 60 min) by adding equal volume of ice-cold acetonitrile. The samples were stored at −80° C. until LC/MS/MS assays.
(§2) The concentrations of compounds in the incubation mixtures of human or rat liver microsomes were determined by a LC/MS/MS method. The ranges of the linearity in the concentration range were determined for each tested compounds.
(§3) A parallel incubation was performed using denatured microsomes as the negative control, and reactions were terminated at various time points (0, 15, 60 min) after incubation at 37° C.
(§4) Dextromethorphan (70 μM) was selected as the positive control, and reactions were terminated at various time points (0, 5, 10, 15, 30, 60 min) after incubation at 37° C. Both positive and negative control samples were included in each assay to ensure the integrity of the microsomal incubation system.
(§5) The concentrations of compounds in human or rat liver microsome incubations were plotted as a percentage of the relevant zero time point control for each reaction. The in vivo CLint were extrapolated (ref.: Naritomi, Y.; Terashita, S.; Kimura, S.; Suzuki, A.; Kagayama, A.; and Sugiyama, Y.; Prediction of human hepatic clearance from in vivo animal experiments and in vitro metabolic studies with liver microsomes from animals and humans. Drug Metab. Dispos., 2001, 29: 1316-1324).

Data set [2] can be described thus: Compound stability in human liver microsomes. The format is in vitro ADME. The conditions noted are these: for half-life at 5 μM: compound 5 μM, NADPH 1.0 mM, 37° C.; for CLint scaled at 5 μM: in vivo CLint extrapolated. On the procedure: as §1, §2, §3, §4, §5
A short description of data set [3]: Pharmacokinetics after intravenous and oral administration in rats. The format is in vivo. The conditions noted are these: for Clearance (CL) after iv dosing / AUC(0-t) / half-life / Vd: dose 1 mg/kg (Ex. 27: 0.72 mg/kg), iv dosing; for F: oral bioavailability; for AUC(0-t) / half-life / Vd: rat, plasma; for Vd: read-out: Vss. On the procedure: The LC/MS/MS system used in the analysis consists of an Agilent 1200 Series vacuum degasser, binary pump, well-plate autosampler, thermostatted column compartment, the Agilent G6430 Triple Quadrupole Mass Spectrometer with an electrosprayionization (ESI) source. Quantitative analysis was carried out using MRM mode. The parameters for MRM transitions are in the Table A.
An Agilent XDB-C18, 2.1×30 mm, 3.5 μM column was used for the analysis. 5 μL of the samples were injected. Analysis condition: The mobile phase was 0.1% formic acid in water (A) and 0.1% formic acid in methanol (B). The flow rate was 0.4 mL/min. And the gradient of Mobile phase was in the Table B.
Alternatively, an Agilent 6330 series LC/MS/MS spectrometer equipped with G1312A binary pumps, a G1367A autosampler and a G1314C UV detector were used in the analysis. An ESI source was used on the LC/MS/MS spectrometer. The analysis was done in positive ion mode as appropriate and the MRM transition for each analyte was optimized using standard solution. A Capcell MP-C18 100×4.6 mm I.D., […] column (Phenomenex, Torrance, Calif., USA) was used during the analysis. The mobile phase was 5 mM ammonia acetate, 0.1% MeOH in water (A): 5 mM ammonia acetate, 0.1% MeOH in acetonitrile (B) (70:30, v/v). The flow rate was 0.6 mL/min. Column was maintained at ambient temperature. 20 μL of the samples were injected.
The compounds disclosed herein are assessed in pharmacokinetic studies in mice, rats, dogs or monkeys. The compounds are administered as a water solution, 2% HPMC+1% TWEEN®80 in water solution, 5% DMSO+5% solution in saline, 4% MC suspension or capsule. For the intravenous administration, the animals are generally given at 1 or 2 mg/kg dose. For the oral (p.o.) dosing, mice and rats are generally given 5 or 10 mg/kg dose, and dogs and monkeys are generally given 10 mg/kg dose. The blood samples (0.3 mL) are drawn at 0.25, 0.5, 1.0, 2.0, 3.0, 4.0, 6.0, 8.0, 12 and 24 h time points or 0.083, 0.25, 0.5, 1.0, 2.0, 4.0, 6.0, 8.0 and 24 h time points and centrifuged at 3,000 or 4000 rpm for 2 to 10 min. The plasma solutions are collected, and stored at −20° C. or −70° C. until analyzed by LC/MS/MS as described above.

For data set [4], the target named is JAK1 (h) (Homo sapiens (Human), UniProt P23458). In words: JAK1 kinase assay (33P-ATP filter binding, Millipore). It is filed as biochemical. On the procedure: Kinase assays can be performed by measurement of incorporation of γ-^33P ATP into immobilized myelin basic protein (MBP). High binding white 384 well plates (Greiner) are coated with MBP (Sigma #M−1891) by incubation of 60 μL/well of 20 μg/mL MBP in Tris-buffered saline (TBS; 50 mM Tris pH 8.0, 138 mM NaCl, 2.7 mM KCl) for 24 h at 4° C. Plates are washed 3× with 100 μL TBS. Kinase reactions are carried out in a total volume of 34 μL in kinase buffer (5 mM Hepes pH 7.6, 15 mM NaCl, 0.01% bovine gamma globulin (Sigma #I-5506), 10 mM MgCl2, 1 mM DTT, 0.02% TritonX-100). Compound dilutions are performed in DMSO and added to assay wells to a final DMSO concentration of 1%. Each data point is measured in duplicate, and at least two duplicate assays are performed for each individual compound determination. Enzyme is added to final concentrations of 10 nM or 20 nM, for example. A mixture of unlabeled ATP and γ-^33P ATP is added to start the reaction (2×10^6 cpm of γ-^33P ATP per well (3000 Ci/mmole) and 10 μM unlabeled ATP, typically. The reactions are carried out for 1 h at room temperature with shaking. Plates are washed 7× with TBS, followed by the addition of 50 μL/well scintillation fluid (Wallac). Plates are read using a Wallac Trilux counter. This is only one format of such assays; various other formats are possible, as known to one skilled in the art.
The above assay procedure can be used to determine the IC50 for inhibition and/or the inhibition constant, Ki. The IC50 is defined as the concentration of compound required to reduce the enzyme activity by 50% under the condition of the assay. The IC50 value is estimated by preparing a 10 point curve using a 1/2 log dilution series (for example, a typical curve may be prepared using the following compound concentrations: 3 μM, 1 μM, 0.3 μM, 0.1 μM, 0.03 μM, 0.01 μM, 0.003 μM, 0.001 μM, 0.0003 μM and 0 μM).
The kinase assays described herein were performed at Millipore UK Ltd, Dundee Technology Park, Dundee DD2 1SW, UK.

The mark [5] stands for this setting: rat, liver microsomes, pH 7.4, Rat liver microsomes 0.5 mg protein/mL.
Where [6] appears, read: rat, liver microsomes, pH 7.4, Rat liver microsomes.
The mark [7] stands for this setting: human, liver microsomes, pH 7.4, Human liver microsomes 0.5 mg protein/mL.
Setting [8] is: human, liver microsomes, pH 7.4, Human liver microsomes.
[9] abbreviates: pH 7.4, Rat liver microsomes 0.5 mg protein/mL.
[10] abbreviates: pH 7.4, Human liver microsomes 0.5 mg protein/mL.

Chain of JAK1 (h) (P23458 whole entry): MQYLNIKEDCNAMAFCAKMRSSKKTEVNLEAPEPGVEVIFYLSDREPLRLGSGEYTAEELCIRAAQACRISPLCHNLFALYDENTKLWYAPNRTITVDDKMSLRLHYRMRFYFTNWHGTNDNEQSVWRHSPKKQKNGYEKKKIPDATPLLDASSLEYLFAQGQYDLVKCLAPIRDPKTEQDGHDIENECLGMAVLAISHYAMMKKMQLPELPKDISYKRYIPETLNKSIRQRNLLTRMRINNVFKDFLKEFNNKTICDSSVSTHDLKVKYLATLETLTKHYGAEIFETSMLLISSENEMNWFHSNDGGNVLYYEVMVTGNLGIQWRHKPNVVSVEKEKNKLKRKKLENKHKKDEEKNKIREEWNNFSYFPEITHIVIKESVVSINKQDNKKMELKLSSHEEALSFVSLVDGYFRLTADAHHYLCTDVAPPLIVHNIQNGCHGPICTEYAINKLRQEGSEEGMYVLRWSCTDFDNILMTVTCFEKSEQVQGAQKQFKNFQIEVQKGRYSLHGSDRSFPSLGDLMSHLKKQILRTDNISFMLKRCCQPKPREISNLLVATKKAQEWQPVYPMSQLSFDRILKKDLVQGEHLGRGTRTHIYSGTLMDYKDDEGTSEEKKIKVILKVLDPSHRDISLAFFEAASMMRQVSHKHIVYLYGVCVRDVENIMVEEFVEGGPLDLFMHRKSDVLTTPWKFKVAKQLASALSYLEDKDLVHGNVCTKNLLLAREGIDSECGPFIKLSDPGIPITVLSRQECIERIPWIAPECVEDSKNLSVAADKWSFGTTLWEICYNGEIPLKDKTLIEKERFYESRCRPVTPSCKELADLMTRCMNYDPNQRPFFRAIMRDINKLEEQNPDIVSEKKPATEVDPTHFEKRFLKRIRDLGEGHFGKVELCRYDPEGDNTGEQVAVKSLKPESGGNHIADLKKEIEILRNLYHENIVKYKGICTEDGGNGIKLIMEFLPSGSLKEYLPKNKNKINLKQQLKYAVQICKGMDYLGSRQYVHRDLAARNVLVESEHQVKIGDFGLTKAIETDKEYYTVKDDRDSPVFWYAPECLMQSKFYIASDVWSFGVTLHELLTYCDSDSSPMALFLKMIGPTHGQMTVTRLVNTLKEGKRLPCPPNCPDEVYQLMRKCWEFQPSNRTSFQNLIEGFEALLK

Take `CN(c1nc(Nc2cnn(C)c2)ncc1Cl)C1CCC2(CCNC2)CC1` (single isomer, unassigned) [Ex. 3.10A, 5-chloro-N^4-methyl-N^2-(1-methyl-1H-pyrazol-4-yl)-N^4-(2-azaspiro[4.5]decan-8-yl)pyrimidine-2,4-diamine]: the half-life at 5 μM in data set [1] (setting [5]) came to 0.213 h. Moreover, the CLint scaled at 5 μM in data set [1] (setting [6]) was 194 mL/min/kg. This compound also gave a half-life at 5 μM in data set [2] (setting [7]) of 5.24 h. For the same compound, the CLint scaled at 5 μM in data set [2] (setting [8]) was 5.53 mL/min/kg. In addition, in data set [3], the “Clearance (CL) after iv dosing” value stood at 70.2 mL/min/kg, the F stood at 19.06%, the AUC(0-t) was found to be 216 ng·h/mL and the half-life is 2.72 h. Also, the Vd in data set [3] stood at 13.5 L/kg.
On to `Cc1cnc(Nc2cnn(C)c2)nc1N(C)C1CCC2(CC1)CCN(C(=O)CC#N)CC2` [Ex. 23, 3-(9-(methyl(5-methyl-2-((1-methyl-1H-pyrazol-4-yl)amino)pyrimidin-4-yl)amino)-3-azaspiro[5.5]undecan-3-yl)-3-oxopropanenitrile], for which the half-life at 5 μM was found to be 0.075 h in data set [1] (setting [5]) and 2.09 h in data set [2] (setting [7]). Moreover, the intrinsic metabolic clearance (CLint scaled) at 5 μM is 552 mL/min/kg in data set [1] (setting [6]) and 13.9 mL/min/kg in data set [2] (setting [8]).
For `COc1cnc(Nc2cc(C3CC3)[nH]n2)nc1NC1CC2CN(C(=O)CC#N)CC2C1` (stereo not drawn) [Ex. 52, 3-(5-((2-((5-cyclopropyl-1H-pyrazol-3-yl)amino)-5-methoxypyrimidin-4-yl)amino)hexahydrocyclopenta[c]pyrrol-2(1H)-yl)-3-oxopropanenitrile], in data set [1] (setting [9]), the half-life at 5 μM is 0.267 h. For the same compound, the CLint scaled at 5 μM in data set [1] (pH 7.4, Rat liver microsomes) was 155 mL/min/kg. This compound yielded a half-life at 5 μM in data set [2] (setting [10]) of 1.14 h. The CLint scaled at 5 μM in data set [2] (pH 7.4, Human liver microsomes) was 25.4 mL/min/kg. Besides, in data set [3], the “Clearance (CL) after iv dosing” value was 84.2 mL/min/kg, the F is reported as 16.5%, the area under the curve AUC(0-t) was 197 ng·h/mL and the half-life was 0.32 h. The Vd in data set [3] was 1.6 L/kg.
`Cn1cc(Nc2nccc(NC3CCC4(CC3)CCN(C(=O)CC#N)C4)n2)cn1` (stereo not drawn) [Ex. 6, 3-(8-((2-((1-methyl-1H-pyrazol-4-yl)amino)pyrimidin-4-yl)amino)-2-azaspiro[4.5]decan-2-yl)-3-oxopropanenitrile] returned an IC50 in data set [4] of 55 nM.
As for `CC(=O)N1CC2CC(Nc3nc(Nc4cc(C5CC5)[nH]n4)ncc3Cl)CC2C1` (stereo not drawn) [Ex. 53, 1-(5-((5-chloro-2-((5-cyclopropyl-1H-pyrazol-3-yl)amino)pyrimidin-4-yl)amino)hexahydrocyclopenta[c]pyrrol-2(1H)-yl)ethanone], in data set [1] (setting [9]), the half-life at 5 μM was 0.385 h. For the same compound, the CLint scaled at 5 μM in data set [1] (pH 7.4, Rat liver microsomes) is 108 mL/min/kg. For the same compound, the half-life at 5 μM in data set [2] (setting [10]) is 4.44 h. Moreover, in data set [2] (pH 7.4, Human liver microsomes), the CLint scaled at 5 μM was 6.53 mL/min/kg. In data set [3], the “Clearance (CL) after iv dosing” value came to 55.2 mL/min/kg, the F is given as 33.0%, the AUC(0-t) is 296 ng·h/mL and the half-life was 1.02 h. Further, the Vd in data set [3] came to 2.46 L/kg.
For `Cn1cc(Nc2ncc(C#N)c(NC3CC4CN(C(=O)CC#N)CC4C3)n2)cn1` (stereo not drawn) [Ex. 67, 4-((2-(2-cyanoacetyl)octahydrocyclopenta[c]pyrrol-5-yl)amino)-2-((1-methyl-1H-pyrazol-4-yl)amino)pyrimidine-5-carbonitrile], the half-life at 5 μM in data set [1] (setting [9]) was found to be 0.44 h; in data set [2] (setting [10]) it was 4.93 h. Further, the CLint scaled at 5 μM was 94.1 mL/min/kg in data set [1] (pH 7.4, Rat liver microsomes) and 5.87 mL/min/kg in data set [2] (pH 7.4, Human liver microsomes).
With `N#CCC(=O)N1CCC2(CCC(Nc3nc(Nc4cc(C5CC5)[nH]n4)ncc3Cl)CC2)CC1` [Ex. 54, 3-(9-((5-chloro-2-((5-cyclopropyl-1H-pyrazol-3-yl)amino)pyrimidin-4-yl)amino)-3-azaspiro[5.5]undecan-3-yl)-3-oxopropanenitrile], the half-life at 5 μM in data set [1] (setting [5]) came to 0.527 h; in data set [2] (setting [7]), 0.647 h. Also, the CLint scaled at 5 μM in data set [1] (setting [6]) was 78.6 mL/min/kg; in data set [2] (setting [8]) it was 44.8 mL/min/kg.
Take `Cc1nn(C)cc1Nc1ncc(Cl)c(NC2CCC3(CC2)CCN(C(=O)CC#N)CC3)n1` [Ex. 57, 3-(9-((5-chloro-2-((1,3-dimethyl-1H-pyrazol-4-yl)amino)pyrimidin-4-yl)amino)-3-azaspiro[5.5]undecan-3-yl)-3-oxopropanenitrile]: the IC50 in data set [4] is 16 nM. This lies in the double-digit nanomolar range.
Compound `CN(c1ccnc(Nc2cnn(C)c2)n1)C1CNCC12CCCC2` (stereo not drawn) [Ex. 1, N^4-methyl-N^2-(1-methyl-1H-pyrazol-4-yl)-N^4-(2-azaspiro[4.4]nonan-4-yl) pyrimidine-2,4-diamine] showed a half-life at 5 μM in data set [1] (setting [9]) of 4.49 h. In addition, the intrinsic metabolic clearance (CLint scaled) at 5 μM in data set [1] (pH 7.4, Rat liver microsomes) was 9.23 mL/min/kg. For the same compound, in data set [2] (setting [10]), the half-life at 5 μM came out at 3.05 h. The CLint scaled at 5 μM in data set [2] (pH 7.4, Human liver microsomes) is 9.49 mL/min/kg. Besides, in data set [3], the “Clearance (CL) after iv dosing” value was found to be 157 mL/min/kg, the F worked out at 44.39%, the AUC(0-t) worked out at 103 ng·h/mL and the half-life is 3.77 h. Further, in data set [3], the Vd is 40.3 L/kg.
Regarding `CC(=O)N1CC2CC(Nc3nc(Nc4cnn(C)c4)ncc3C)CC2C1` (stereo not drawn) [Ex. 61, 1-(5-((5-methyl-2-((1-methyl-1H-pyrazol-4-yl)amino)pyrimidin-4-yl)amino)hexahydrocyclopenta[c]pyrrol-2(1H)-yl)ethanone], the IC50 in data set [4] was 42 nM.

The term half-life denotes the time needed for the level to fall by half in the phase considered. Read a low half-life as rapid decline. The CLint scaled is the capacity of the preparation to metabolise the compound, expressed as a volume cleared per time. What is called AUC(0-t) is the area under the concentration-time curve up to a stated or last time point. A high value points to high exposure. The term IC50 denotes the concentration that gives 50% inhibition.

The values above are taken from patent US9403801B2 (Calitor Sciences, LLC, priority 2014, dated 2016).
